In brackets after ≈: the same amount, converted by molar mass. Activity calls are given as the source filed them. The rule behind the calls is not given here.
How the values were obtained:
COLO 320DM = assay: Antiproliferative activity against human COLO320DM cells assessed as inhibition of cell growth measured after 4 days by CellTiter-Glo assay; assay type: functional; conditions: 96 h
[1] = Stability in mouse liver microsomes assessed as parent compound remaining at 1 uM measured after 60 mins in presence of NADPH by LC-MS/MS analysis; assay type: ADME, Microsome; conditions: read-out: Stability
[2] = Net efflux ratio of permeability across basolateral to apical side over apical to basolateral side in MDCK2-MDR1 cells to MDCK2 cells; assay type: ADME, cell-based, Canis lupus familiaris; conditions: dog, mdck
[3] = molecular target: T1, Poly [ADP-ribose] polymerase tankyrase-1 (Homo sapiens, UniProt O95271)
T1 sequence (O95271 whole entry): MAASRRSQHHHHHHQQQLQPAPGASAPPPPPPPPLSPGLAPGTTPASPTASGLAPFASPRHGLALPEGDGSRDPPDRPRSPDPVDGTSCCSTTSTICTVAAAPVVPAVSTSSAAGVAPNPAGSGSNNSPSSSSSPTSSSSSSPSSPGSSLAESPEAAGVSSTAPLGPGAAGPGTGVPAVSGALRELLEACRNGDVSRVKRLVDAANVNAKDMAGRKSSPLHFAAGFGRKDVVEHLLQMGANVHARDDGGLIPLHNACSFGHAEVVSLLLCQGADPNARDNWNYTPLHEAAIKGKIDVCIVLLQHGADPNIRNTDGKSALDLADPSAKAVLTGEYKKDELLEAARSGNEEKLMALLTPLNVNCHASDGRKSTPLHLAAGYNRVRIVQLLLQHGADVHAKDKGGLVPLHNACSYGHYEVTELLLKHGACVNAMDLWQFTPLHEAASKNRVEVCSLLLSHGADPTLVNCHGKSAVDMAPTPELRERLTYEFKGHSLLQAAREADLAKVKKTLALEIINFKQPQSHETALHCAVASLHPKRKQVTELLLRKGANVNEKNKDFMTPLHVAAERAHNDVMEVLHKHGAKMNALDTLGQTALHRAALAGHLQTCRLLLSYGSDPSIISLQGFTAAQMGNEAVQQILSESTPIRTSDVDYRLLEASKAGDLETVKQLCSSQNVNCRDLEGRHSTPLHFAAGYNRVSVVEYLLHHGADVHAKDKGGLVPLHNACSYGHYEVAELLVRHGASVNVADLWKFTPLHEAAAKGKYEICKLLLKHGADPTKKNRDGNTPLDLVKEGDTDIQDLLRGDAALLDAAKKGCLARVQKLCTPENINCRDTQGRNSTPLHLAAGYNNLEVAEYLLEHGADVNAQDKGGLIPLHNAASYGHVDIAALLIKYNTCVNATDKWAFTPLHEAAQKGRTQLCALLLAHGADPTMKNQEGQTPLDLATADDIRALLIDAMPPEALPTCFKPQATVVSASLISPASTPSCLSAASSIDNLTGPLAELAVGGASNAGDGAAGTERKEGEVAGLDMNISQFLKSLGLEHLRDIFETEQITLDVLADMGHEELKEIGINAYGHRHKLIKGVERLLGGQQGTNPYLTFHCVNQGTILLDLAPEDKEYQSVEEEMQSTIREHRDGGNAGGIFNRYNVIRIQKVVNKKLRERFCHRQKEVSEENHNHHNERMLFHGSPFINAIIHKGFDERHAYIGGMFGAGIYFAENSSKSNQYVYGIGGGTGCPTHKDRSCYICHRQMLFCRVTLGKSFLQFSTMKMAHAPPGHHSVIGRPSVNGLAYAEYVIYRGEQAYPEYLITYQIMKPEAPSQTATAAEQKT
Description: Inhibition of recombinant human N-terminal TEV cleavage site-fused/FLAG-poly his-tagged TNKS SAM-PARP domain (1024 to 1327 residues) expressed in Escherichia coli assessed as reduction in auto-PARylation preincubated for 10 mins followed by biotinylated-NAD+ addition and measured after 45 mins by ELISA

MDR1 = assay: Efflux ratio of permeability across basolateral to apical side over apical to basolateral side in MDCK2-MDR1 cells; assay type: ADME, cell-based, Canis lupus familiaris; conditions: dog, MDCK-MDR1
[4] = molecular target: T2, Tankyrase 1/2 (Homo sapiens) (UniProt Q9H2K2+O95271); assay: Inhibition of TNKS/TNKS2-mediated WNT/beta-catenin signaling pathway in human COLO320DM cells assessed as upregulation of AXIN2 expression at 0.33 uM measured after 16 hrs by Western blot analysis; assay type: cell-based
Tankyrase 1/2 [5] = molecular target: T3, Tankyrase 1/2 (Homo sapiens, UniProt Q9H2K2+O95271); conditions: hek293
T3 sequence (Q9H2K2 whole entry): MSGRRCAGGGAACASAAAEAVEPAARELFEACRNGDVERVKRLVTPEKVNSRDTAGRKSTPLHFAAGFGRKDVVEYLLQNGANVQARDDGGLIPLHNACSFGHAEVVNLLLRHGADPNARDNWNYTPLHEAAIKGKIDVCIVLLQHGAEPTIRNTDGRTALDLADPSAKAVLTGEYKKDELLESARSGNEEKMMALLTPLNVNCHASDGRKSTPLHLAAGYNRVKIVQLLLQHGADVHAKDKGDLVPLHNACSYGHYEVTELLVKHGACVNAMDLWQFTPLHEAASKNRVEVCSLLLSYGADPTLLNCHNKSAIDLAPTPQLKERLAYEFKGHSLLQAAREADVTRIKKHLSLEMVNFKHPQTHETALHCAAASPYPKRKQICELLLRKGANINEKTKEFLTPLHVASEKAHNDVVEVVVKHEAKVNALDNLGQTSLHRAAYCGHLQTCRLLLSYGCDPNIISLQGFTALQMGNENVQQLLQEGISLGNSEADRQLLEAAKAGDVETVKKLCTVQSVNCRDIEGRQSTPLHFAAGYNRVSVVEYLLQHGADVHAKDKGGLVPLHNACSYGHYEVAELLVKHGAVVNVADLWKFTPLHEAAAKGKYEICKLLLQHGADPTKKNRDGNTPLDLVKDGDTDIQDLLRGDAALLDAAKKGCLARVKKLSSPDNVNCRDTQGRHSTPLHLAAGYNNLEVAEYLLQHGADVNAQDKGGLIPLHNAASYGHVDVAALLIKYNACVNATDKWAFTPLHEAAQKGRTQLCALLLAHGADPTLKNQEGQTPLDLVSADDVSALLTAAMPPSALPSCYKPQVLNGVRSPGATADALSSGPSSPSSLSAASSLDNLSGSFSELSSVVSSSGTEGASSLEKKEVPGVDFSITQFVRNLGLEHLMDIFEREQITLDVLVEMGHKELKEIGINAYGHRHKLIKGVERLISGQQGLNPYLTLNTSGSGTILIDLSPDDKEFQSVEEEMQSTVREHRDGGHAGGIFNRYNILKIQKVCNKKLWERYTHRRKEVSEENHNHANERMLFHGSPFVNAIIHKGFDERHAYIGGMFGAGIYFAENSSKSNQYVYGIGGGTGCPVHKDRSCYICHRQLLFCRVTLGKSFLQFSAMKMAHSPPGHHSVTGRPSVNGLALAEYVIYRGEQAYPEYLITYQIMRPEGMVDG
T3 sequence (O95271 whole entry): T1 sequence (O95271 whole entry)
Description: Inhibition of TNKS/TNKS2 (unknown origin) expressed in HEK293 cells assessed as reduction in Wnt-signaling measured after 24 hrs by TCF-luciferase reporter gene assay

[6] = Stability in human liver microsomes assessed as parent compound remaining at 1 uM measured after 60 mins in presence of NADPH by LC-MS/MS analysis; assay type: ADME, Microsome; conditions: read-out: Stability
Tankyrase 1/2 [7] = molecular target: T3, Tankyrase 1/2
Description: Inhibition of TNKS/TNKS2 (unknown origin) expressed in human DLD1 cells assessed as reduction in Wnt-signaling measured after 24 hrs by TCF-luciferase reporter gene assay

physchem = conditions: phosphate buffered saline, pH 7.4
[8] = molecular target: T4, Poly [ADP-ribose] polymerase tankyrase-2 (Homo sapiens, UniProt Q9H2K2); assay: Inhibition of recombinant human N-terminal TEV cleavage site-fused/FLAG-poly his-tagged TNKS2 ARC5-SAM-PARP domain (613 to 1166 residues) expressed in Escherichia coli assessed as reduction in auto-PARylation preincubated for 10 mins followed by biotinylated-NAD+ addition and measured after 45 mins by ELISA
T4 sequence (Q9H2K2 whole entry): T3 sequence (Q9H2K2 whole entry)

[9] = molecular target: T2, Tankyrase 1/2 (Homo sapiens); assay: Inhibition of TNKS/TNKS2-mediated WNT/beta-catenin signaling pathway in human COLO320DM cells assessed as reduction in beta-catenin expression at 0.33 uM measured after 16 hrs by Western blot analysis; assay type: cell-based
[10] = Efflux ratio of permeability across basolateral to apical side over apical to basolateral side in MDCK2 cells; assay type: ADME, cell-based, Canis lupus familiaris, MDCK-II; conditions: dog, mdck
[11] = Permeability of the compound measured after 4 hrs by PAMPA; assay type: ADME; conditions: read-out: permeability
[12] = Protein binding in mouse plasma assessed as unbound fraction at 1 uM measured after 24 hrs by LC-MS/MS analysis; assay type: ADME, cell-free
[13] = Stability in human liver microsomes assessed as parent compound remaining at 1 uM measured after 30 mins in presence of NADPH by LC-MS/MS analysis; assay type: ADME, Microsome; conditions: read-out: Stability
[14] = Stability in rat liver microsomes assessed as parent compound remaining at 1 uM measured after 60 mins in presence of NADPH by LC-MS/MS analysis; assay type: ADME, Microsome; conditions: read-out: Stability
[15] = Stability in mouse liver microsomes assessed as parent compound remaining at 1 uM measured after 30 mins in presence of NADPH by LC-MS/MS analysis; assay type: ADME, Microsome; conditions: read-out: Stability
[16] = Protein binding in human plasma assessed as unbound fraction at 1 uM measured after 24 hrs by LC-MS/MS analysis; assay type: ADME, cell-free
[17] = Stability in rat liver microsomes assessed as parent compound remaining at 1 uM measured after 30 mins in presence of NADPH by LC-MS/MS analysis; assay type: ADME, Microsome; conditions: read-out: Stability

SMILES | GI50 (COLO 320DM) [nM] | remaining at 1 h, 1 µM [1] [%] | Ratio [2] | IC50 [3] [nM] | efflux ratio (MDR1) | inhibition [4] | IC50 (Tankyrase 1/2 [5]) [nM] | remaining at 1 h, 1 µM [6] [%] | IC50 (Tankyrase 1/2 [7]) [nM] | solubility at 1 h, 200 µM (physchem) [µg/mL] | IC50 [8] [nM] | inhibition [9] | efflux ratio [10] | Papp at 4 h [11] [×10⁻⁶ cm/s] | fraction unbound at 24 h, 1 µM [12] | remaining at 0.5 h, 1 µM [13] [%] | remaining at 1 h, 1 µM [14] [%] | remaining at 0.5 h, 1 µM [15] [%] | fraction unbound at 24 h, 1 µM [16] | remaining at 0.5 h, 1 µM [17] [%]
CN1CCCc2c1nc(N1CCC3(CC1)C(=O)N(C)c1cc(OCC(=O)O)cc(F)c13)[nH]c2=O | 300 | 93.3 | 1 | 4.2 | 0.3 | inactive | 507 | 97.6 | 1877 | 98.4 (≈ 209 µM) | 9.9 | inactive | 0.3 | – | – | – | – | – | – | –
CN1CCCc2c1nc(N1CCC3(CC1)C(=O)N(CCO)c1cc(F)cc(F)c13)[nH]c2=O | 250 | 2 to 8.5 | 3.8 | 7.5 | 24.6 | – | 1.1 | 6.3 | 3.9 | 82.9 (≈ 186 µM) | 13.5 | – | 6.4 | 3 | 0.083 | 21 | 0.5 | 21.2 | 0.022 | 2
